Reference: ChEMBL document CHEMBL1201862, “PubChem BioAssay data set” (2004)
Several values for one entry are separate records, joined by “and”; a condition that tells them apart may be missing. Equal entries are not always repeated.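 Exposure lasted 48 hours, with cells grown in 96-well plates and compounds tested at five concentrations. At the GI50, growth is halved.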 Activity calls are given as the source filed them. Cut-off read from the data, not from the text of the source: active = GI50 up to about 1.1 µM and inactive = higher.

Experiments:
Assay in all cases: NCI tumour cell line growth inhibition, 48 h
SNB-75 = test system: SNB-75
CAKI-1 = test system: CAKI-1
COLO 205 = test system: COLO 205
NCI-H522 = test system: NCI-H522
OVCAR-4 = test system: OVCAR-4
K562 = test system: K562
HT-29 = test system: HT-29
UO-31 = test system: UO-31
NCI-H226 = test system: NCI-H226
SNB-19 = test system: SNB-19
TK-10 = test system: TK-10
SR = test system: SR
ACHN = test system: ACHN
UACC-257 = test system: UACC-257
RPMI-8226 = test system: RPMI-8226
HOP-92 = test system: HOP-92
SN12C = test system: SN12C
HOP-62 = test system: HOP-62
SK-MEL-2 = test system: SK-MEL-2
SF-268 = test system: SF-268
DU-145 = test system: DU-145
HL-60 = test system: HL-60
HCT-116 = test system: HCT-116
UACC-62 = test system: UACC-62
NCI-H460 = test system: NCI-H460
MDA-MB-435 = test system: MDA-MB-435
MOLT-4 = test system: MOLT-4
IGROV-1 = test system: IGROV-1
786-0 = test system: 786-0
M14 = test system: M14
EKVX = test system: EKVX
SK-OV-3 = test system: SK-OV-3
NCI-H23 = test system: NCI-H23
CCRF-CEM = test system: CCRF-CEM
KM12 = test system: KM12
U-251 = test system: U-251
SK-MEL-28 = test system: SK-MEL-28
OVCAR-5 = test system: OVCAR-5
SF-295 = test system: SF-295
SK-MEL-5 = test system: SK-MEL-5
MCF7 = test system: MCF7
HCT-15 = test system: HCT-15
Malme-3M = test system: Malme-3M
Hs-578T = test system: Hs-578T
OVCAR-8 = test system: OVCAR-8
A549 = test system: A549
NCI/ADR-RES = test system: NCI/ADR-RES
SW-620 = test system: SW-620
LOX IMVI = test system: LOX IMVI
T47D = test system: T47D
RXF 393 = test system: RXF 393
PC-3 = test system: PC-3
SF-539 = test system: SF-539
OVCAR-3 = test system: OVCAR-3
MDA-MB-231 = test system: MDA-MB-231
HCC 2998 = test system: HCC 2998

C/C(=C\COP(=O)(O)OP(=O)(O)O)CC/C=C(\C)CNc1ccc([N+](=O)[O-])cc1
GI50 (SNB-75): > 100 µM (inactive)
GI50 (CAKI-1): > 100 µM (inactive)
GI50 (COLO 205): > 100 µM (inactive)
GI50 (NCI-H522): > 100 µM (inactive)
GI50 (OVCAR-4): > 100 µM (inactive)
GI50 (K562): > 100 µM (inactive)
GI50 (HT-29): > 100 µM (inactive)
GI50 (UO-31): > 100 µM (inactive)
GI50 (NCI-H226): > 100 µM (inactive)
GI50 (SNB-19): > 100 µM (inactive)
GI50 (TK-10): > 100 µM (inactive)
GI50 (SR): > 100 µM (inactive)
GI50 (ACHN): > 100 µM (inactive)
GI50 (UACC-257): 71.8 µM (inactive)
GI50 (RPMI-8226): > 100 µM (inactive)
GI50 (HOP-92): > 100 µM (inactive)
GI50 (SN12C): > 100 µM (inactive)
GI50 (HOP-62): > 100 µM (inactive)
GI50 (SK-MEL-2): > 100 µM (inactive)
GI50 (SF-268): > 100 µM (inactive)
GI50 (DU-145): > 100 µM (inactive)
GI50 (HL-60): > 100 µM (inactive)
GI50 (HCT-116): > 100 µM (inactive)
GI50 (UACC-62): > 100 µM (inactive)
GI50 (NCI-H460): > 100 µM (inactive)
GI50 (MDA-MB-435): > 100 µM (inactive)
GI50 (MOLT-4): > 100 µM (inactive)
GI50 (IGROV-1): > 100 µM (inactive)
GI50 (786-0): > 100 µM (inactive)
GI50 (M14): > 100 µM (inactive)
GI50 (EKVX): > 100 µM (inactive)
GI50 (SK-OV-3): > 100 µM (inactive)
GI50 (NCI-H23): > 100 µM (inactive)
GI50 (CCRF-CEM): > 100 µM (inactive)
GI50 (KM12): > 100 µM (inactive)
GI50 (U-251): > 100 µM (inactive)
GI50 (SK-MEL-28): > 100 µM (inactive)
GI50 (OVCAR-5): > 100 µM (inactive)
GI50 (SF-295): > 100 µM (inactive)
GI50 (SK-MEL-5): > 100 µM (inactive)
GI50 (MCF7): > 100 µM (inactive)
GI50 (HCT-15): > 100 µM
GI50 (Malme-3M): > 100 µM (inactive)
GI50 (Hs-578T): > 100 µM (inactive)
GI50 (OVCAR-8): > 100 µM (inactive)
GI50 (A549): > 100 µM (inactive)
GI50 (NCI/ADR-RES): > 100 µM (inactive)
GI50 (SW-620): > 100 µM (inactive)
GI50 (LOX IMVI): > 100 µM (inactive)
GI50 (T47D): > 100 µM (inactive)
GI50 (RXF 393): > 100 µM (inactive)
GI50 (PC-3): > 100 µM (inactive)
GI50 (SF-539): > 100 µM (inactive)
GI50 (OVCAR-3): > 100 µM (inactive)
GI50 (MDA-MB-231): > 100 µM (inactive)

CC(=O)OCC1OC(Sc2nc(-c3ccc(Cl)cc3)c(C#N)c(=O)n2C2OC(COC(C)=O)C(OC(C)=O)C(OC(C)=O)C2OC(C)=O)C(OC(C)=O)C(OC(C)=O)C1OC(C)=O (stereo not drawn)
GI50 (OVCAR-4): 3.45 µM (inactive)
GI50 (SR): 30.3 µM (inactive)
GI50 (RPMI-8226): 35.9 µM (inactive)
GI50 (HL-60): 3.82 µM (inactive)
GI50 (MOLT-4): 50.4 µM (inactive) and > 26.4 µM (inactive)

CC1(C)N=C(N)N=C(N)N1c1ccc(OCC(=O)Nc2cccc(S(=O)(=O)F)c2)c(Cl)c1
GI50 (SNB-75): 54.7 µM (inactive)
GI50 (CAKI-1): 35.8 µM (inactive)
GI50 (HCC 2998): 19.1 µM (inactive)
GI50 (COLO 205): 15.9 µM (inactive)
GI50 (NCI-H522): 51.8 µM (inactive)
GI50 (OVCAR-4): > 100 µM (inactive)
GI50 (K562): 1.66 µM (inactive)
GI50 (HT-29): 5.16 µM (inactive)
GI50 (UO-31): 78.5 µM (inactive)
GI50 (NCI-H226): 1.8 µM (inactive)
GI50 (SNB-19): 7.8 µM (inactive)
GI50 (TK-10): 7.24 µM (inactive)
GI50 (SR): 2.85 µM (inactive)
GI50 (ACHN): 30 µM (inactive)
GI50 (UACC-257): 2.98 µM (inactive)
GI50 (RPMI-8226): > 33.3 µM (inactive)
GI50 (HOP-92): 2.25 µM (inactive)
GI50 (SN12C): 8 µM (inactive)
GI50 (HOP-62): 31 µM (inactive)
GI50 (SK-MEL-2): > 100 µM (inactive)
GI50 (SF-268): 4.78 µM (inactive)
GI50 (DU-145): > 25.1 µM (inactive)
GI50 (HL-60): 3.75 µM (inactive)
GI50 (HCT-116): 12.6 µM (inactive)
GI50 (UACC-62): 0.676 µM (active)
GI50 (NCI-H460): 5.48 µM (inactive)
GI50 (MDA-MB-435): 4.52 µM (inactive)
GI50 (MOLT-4): 16.3 µM (inactive)
GI50 (IGROV-1): 7 µM (inactive)
GI50 (786-0): 4.9 µM (inactive)
GI50 (M14): 13.9 µM (inactive)
GI50 (SK-OV-3): > 81.1 µM (inactive)
GI50 (NCI-H23): 4.95 µM (inactive)
GI50 (CCRF-CEM): 5.37 µM (inactive)
GI50 (KM12): 17.7 µM (inactive)
GI50 (U-251): 13.6 µM (inactive)
GI50 (SK-MEL-28): > 70 µM (inactive)
GI50 (OVCAR-5): 7.91 µM (inactive)
GI50 (SF-295): 10.2 µM (inactive)
GI50 (SK-MEL-5): 3.56 µM (inactive)
GI50 (MCF7): 6.03 µM (inactive)
GI50 (HCT-15): 9.75 µM
GI50 (Hs-578T): 12.2 µM (inactive)
GI50 (OVCAR-8): 5.82 µM (inactive)
GI50 (A549): 3.52 µM (inactive)
GI50 (NCI/ADR-RES): 59.6 µM (inactive)
GI50 (SW-620): 3.71 µM (inactive)
GI50 (LOX IMVI): 4.9 µM (inactive)
GI50 (T47D): 27.2 µM (inactive)
GI50 (PC-3): 1.54 µM (inactive)
GI50 (SF-539): 13.2 µM (inactive)
GI50 (OVCAR-3): 18.5 µM (inactive)
GI50 (MDA-MB-231): > 31.6 µM (inactive)
